Measurements as given in patent US20230013244A1 (BioIncept, LLC, priority 2014, published 2023).

Tests used:
[1] = tested on: PBMCs (CD3+, CD4+/CD25+/FoxP3+, CD8+/CD25+ cells); assay: FITC-PIF binding to naive T-cell subsets of PBMCs, two- and three-color flow cytometry; type: cell-based, human
Lymphocytes = assay: FITC-PIF binding to mare immune cells, flow cytometry, lymphocytes; type: cell-based
From the text: (§1) Method: whole blood was collected from jugular vein of pregnant (n=4) and non-pregnant (n=8) mares into lithium heparin vacutainers. Whole blood was layered over histopaque (Sigma) density gradient and red cells were allowed to settle through the gradient, leaving a leukocyte-rich plasma layer above. Cells were washed twice in sterile PBS and any remaining RBCs lysed with 0.16 M ammonium chloride solution. […] Cell types were separated based upon their scatter characteristics. […] FIG. 20 and Table 20 show mean+/−SEM in both pregnant and non-pregnant mares, and depicts binding characteristics showing significant differences between FITC-PIF and control, P<0.001.

Granulocytes = assay: FITC-PIF binding to mare immune cells, flow cytometry, granulocytes; type: cell-based
From the text: as §1

Monocytes = assay: FITC-PIF binding to mare immune cells, flow cytometry, monocytes; type: cell-based
From the text: as §1

## GRVDPSNKSMPKDIA [PIFscr, scrambled PIF, control peptide]
[1]; 0-100 uM
  binding to CD4+/CD25+/FoxP3+ cells: minimal binding
[1]; FIG. 10A
  binding to CD3+/CD4+ cells: not replicated
Lymphocytes; Non-pregnant mares, 1 ug/ml
  binding to Lymphocytes, Mean: 0.27
Lymphocytes; Pregnant mares, 1 ug/ml
  binding to Lymphocytes, Mean: 0.12
Lymphocytes; Pregnant mares, 5 ug/ml
  binding to Lymphocytes, Mean: 0.78
Granulocytes; Non-pregnant mares, 1 ug/ml
  binding to Granulocytes, Mean: 0.26
Granulocytes; Pregnant mares, 1 ug/ml
  binding to Granulocytes, Mean: 0.09
Granulocytes; Pregnant mares, 5 ug/ml
  binding to Granulocytes, Mean: 0.93
Monocytes; Non-pregnant mares, 1 ug/ml
  binding to Monocytes, Mean: 1.10
Monocytes; Non-pregnant mares, 5 ug/ml
  binding to Monocytes, Mean: 5.20
Monocytes; Pregnant mares, 1 ug/ml
  binding to Monocytes, Mean: 0.78
